Data: patent publication US11691965B2, “Method for preparing pyrrolidinyl urea derivative” (ZHANGZHOU PIEN TZE HUANG PHARMACEUTICAL CO., LTD., priority 2020, dated 2023)

Legend:
TrkA = TrkA (Homo sapiens (Human), UniProt P04629); experiment: TrkA enzyme activity test; assay type: biochemical
Protocol: Experimental Example 1: TrkA Enzyme Activity Test
TK detection kit Cisbio-62TK0PEJ
Detection plate PerkinElmer-6007299
Envision PerkinElmer-2104
20 mM Hepes (pH 7.5), 10 mM MgCl2 (magnesium chloride), 1 mM EGTA, 0.01% Brij35, 0.1 mM Orthovanadate (sodium vanadate), 0.02 g/mL BSA (bovine serum protein), 2 mM DTT (dithiothreitol), 1% DMSO
This experiment was performed using Cisbio's homogeneous time-resolved fluorescence conjugate energy transfer (HTRF® method) for activity detection. In the detection plate, enzyme, biotin-labeled peptide substrate, ATP and detection compound were mixed and incubated for reaction. […] The data were represented by fluorescence signal readings at 665 nm and 620 nm respectively, with a high ratio of 665 nm/620 nm indicating high activity and a low ratio of 665 nm/620 nm indicating inhibition of activity. […]
In a 10 μL reaction system with a buffer of 20 mM Hepes (pH 7.5), 10 mM MgCl2, 1 mM EGTA, 0.01% Brij35, 0.1 mM sodium vanadate, 0.02 g/mL BSA, 2 mM DTT, 1% DMSO medium, containing 15 nM TrkA kinase, 0.3 μM biotin-TK peptide (biotin-labeled tyrosine kinase substrate polypeptide), 100 μM ATP were incubated at 23° C. for 120 minutes. […]

CYP1A2 = CYP1A2 (Homo sapiens (Human), UniProt P05177); assay type: in vitro ADME; conditions: microsomes, 10 min
Sequence of CYP1A2 (P05177 whole entry, canonical isoform): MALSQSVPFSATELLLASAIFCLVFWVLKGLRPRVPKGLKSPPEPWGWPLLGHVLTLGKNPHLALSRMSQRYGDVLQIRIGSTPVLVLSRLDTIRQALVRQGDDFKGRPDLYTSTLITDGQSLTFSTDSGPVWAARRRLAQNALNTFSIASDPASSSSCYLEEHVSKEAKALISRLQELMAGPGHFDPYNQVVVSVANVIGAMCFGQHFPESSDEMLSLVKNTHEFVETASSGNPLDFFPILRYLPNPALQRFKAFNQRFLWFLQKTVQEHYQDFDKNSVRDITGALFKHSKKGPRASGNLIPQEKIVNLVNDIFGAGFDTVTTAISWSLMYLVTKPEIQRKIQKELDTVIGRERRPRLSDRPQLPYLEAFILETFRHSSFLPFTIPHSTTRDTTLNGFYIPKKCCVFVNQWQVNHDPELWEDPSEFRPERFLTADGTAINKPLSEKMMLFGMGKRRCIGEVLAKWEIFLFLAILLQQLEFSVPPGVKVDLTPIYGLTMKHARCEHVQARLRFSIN
Protocol: (§1) Experimental Example 2: Cytochrome P450 Isoenzyme Inhibitory Activity Test The inhibitory activities of test compound against different isoforms of human cytochrome P450 isoenzymes were determined. The test compound, standard inhibitor (100×final concentration) and mixed substrate working solution were prepared; the microsome frozen in −80° C. refrigerator was taken out and thawed. […]

CYP2C19 = CYP2C19 (Homo sapiens (Human), UniProt P33261); experiment: Cytochrome P450 isoenzyme inhibitory activity test (human liver microsomes); assay type: in vitro ADME; conditions: heading: Cytochrome P450 isoenzyme IC50 CYP2C19, 37° C., 10 minutes
Sequence of CYP2C19 (P33261 whole entry, canonical isoform): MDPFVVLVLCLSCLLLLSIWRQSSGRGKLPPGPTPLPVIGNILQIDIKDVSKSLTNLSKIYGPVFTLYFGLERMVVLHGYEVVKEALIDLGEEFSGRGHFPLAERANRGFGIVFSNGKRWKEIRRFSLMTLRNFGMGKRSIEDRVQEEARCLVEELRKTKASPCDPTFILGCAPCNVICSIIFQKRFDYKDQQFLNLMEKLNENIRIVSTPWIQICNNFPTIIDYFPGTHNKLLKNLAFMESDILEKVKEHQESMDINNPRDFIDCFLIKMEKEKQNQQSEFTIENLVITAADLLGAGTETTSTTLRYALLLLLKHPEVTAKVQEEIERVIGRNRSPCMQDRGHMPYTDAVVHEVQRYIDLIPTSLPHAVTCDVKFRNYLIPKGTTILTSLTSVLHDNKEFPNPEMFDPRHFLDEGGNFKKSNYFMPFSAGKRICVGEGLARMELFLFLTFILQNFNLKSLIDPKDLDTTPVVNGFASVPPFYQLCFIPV
Protocol: (§2) Experimental Example 2: Cytochrome P450 Isoenzyme Inhibitory Activity Test The inhibitory activities of test compound against different isoforms of human cytochrome P450 isoenzymes were determined. The test compound, standard inhibitor (100×final concentration) and mixed substrate working solution were prepared; the microsome frozen in −80° C. refrigerator was taken out and thawed. 2 μL of the compound to be tested and standard inhibitor solution were added to the corresponding wells, and at the same time, 2 μL of the corresponding solvent was added to the non-inhibitor control wells (NIC) and the blank control wells; secondly, 20 μL of mixed substrate solution was added to the corresponding wells except the blank wells (20 μL of Pb was added to the blank wells); human liver microsome solution was prepared (the solution was put back in the refrigerator immediately after using and marking the date), and then 158 μL of human liver microsome solution was added to all wells; the sample plate was put in a 37° C. water bath for pre-incubation, and then a coenzyme factor (NADPH) solution was prepared; after 10 minutes, 20 μL of NADPH solution was added to all wells, the sample plate was shaken well, and incubated in a 37° C. water bath for 10 minutes; at the corresponding time point, 400 μL of cold acetonitrile solution (internal standard is 200 ng/mL tolbutamide and labetalol) was added to terminate the reaction; after the plates were evenly mixed, the mixture was centrifuged at 4000 rpm for 20 minutes to precipitate protein; 200 μL of supernatant was added into 100 μL of water, shaken well and detected by LC/MS/MS.

CYP2C9 = CYP2C9 (Homo sapiens (Human), UniProt P11712); experiment: as above; assay type: in vitro ADME; conditions: heading: Cytochrome P450 isoenzyme IC50 CYP2C9, 37° C., 10 minutes
Sequence of CYP2C9 (P11712 whole entry): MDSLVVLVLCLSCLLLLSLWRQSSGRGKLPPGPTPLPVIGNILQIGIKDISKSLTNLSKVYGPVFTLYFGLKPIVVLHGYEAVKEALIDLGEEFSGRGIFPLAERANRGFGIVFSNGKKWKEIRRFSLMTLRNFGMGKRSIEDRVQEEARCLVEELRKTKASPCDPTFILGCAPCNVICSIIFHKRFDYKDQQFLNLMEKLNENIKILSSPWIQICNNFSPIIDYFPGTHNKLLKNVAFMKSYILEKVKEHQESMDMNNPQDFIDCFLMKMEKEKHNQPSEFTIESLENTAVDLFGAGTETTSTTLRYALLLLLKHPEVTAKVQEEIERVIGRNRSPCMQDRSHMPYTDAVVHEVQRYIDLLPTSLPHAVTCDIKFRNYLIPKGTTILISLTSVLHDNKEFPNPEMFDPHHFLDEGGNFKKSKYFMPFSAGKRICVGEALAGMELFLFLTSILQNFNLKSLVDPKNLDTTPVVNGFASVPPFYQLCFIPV
Protocol: as §2

CYP2D6 = CYP2D6 (Homo sapiens (Human), UniProt P10635); experiment: as above; assay type: in vitro ADME; conditions: heading: Cytochrome P450 isoenzyme IC50 CYP2D6, 37° C., 10 minutes
Sequence of CYP2D6 (P10635 whole entry): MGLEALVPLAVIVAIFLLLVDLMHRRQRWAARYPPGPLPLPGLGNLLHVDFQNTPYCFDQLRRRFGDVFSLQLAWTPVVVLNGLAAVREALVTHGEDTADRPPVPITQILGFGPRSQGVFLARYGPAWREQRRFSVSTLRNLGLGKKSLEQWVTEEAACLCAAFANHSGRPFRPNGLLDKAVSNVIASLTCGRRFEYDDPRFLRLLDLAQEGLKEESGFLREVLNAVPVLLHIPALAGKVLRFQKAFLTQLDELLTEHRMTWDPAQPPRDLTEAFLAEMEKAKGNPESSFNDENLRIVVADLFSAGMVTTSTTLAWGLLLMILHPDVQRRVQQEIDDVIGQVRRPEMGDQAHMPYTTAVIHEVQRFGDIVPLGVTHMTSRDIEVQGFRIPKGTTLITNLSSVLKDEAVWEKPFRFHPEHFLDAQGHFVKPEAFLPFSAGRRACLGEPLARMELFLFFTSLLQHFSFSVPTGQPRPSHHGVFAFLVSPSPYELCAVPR
Protocol: as §2

CYP3A4 = CYP3A4 (Homo sapiens (Human), UniProt P08684); experiment: as above; assay type: in vitro ADME; conditions: heading: Cytochrome P450 isoenzyme IC50 CYP3A4, 37° C., 10 minutes
Sequence of CYP3A4 (P08684 whole entry): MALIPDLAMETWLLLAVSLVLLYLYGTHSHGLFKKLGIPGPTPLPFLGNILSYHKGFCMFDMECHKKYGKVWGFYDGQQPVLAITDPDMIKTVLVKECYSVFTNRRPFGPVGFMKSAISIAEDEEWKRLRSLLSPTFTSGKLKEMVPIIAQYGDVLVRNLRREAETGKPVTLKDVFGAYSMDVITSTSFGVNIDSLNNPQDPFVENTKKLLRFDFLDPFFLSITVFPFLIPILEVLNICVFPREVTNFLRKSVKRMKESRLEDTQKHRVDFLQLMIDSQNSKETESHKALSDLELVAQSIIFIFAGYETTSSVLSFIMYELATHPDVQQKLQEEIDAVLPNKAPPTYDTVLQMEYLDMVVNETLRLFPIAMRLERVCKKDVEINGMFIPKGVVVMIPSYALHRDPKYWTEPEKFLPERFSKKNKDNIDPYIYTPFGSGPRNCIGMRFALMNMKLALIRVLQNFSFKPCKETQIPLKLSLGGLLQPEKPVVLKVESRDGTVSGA
Protocol: as §2

[1] = In vivo pharmacokinetics study after single administration in rats; set-up: species or system Sprague Dawley rats
Protocol: Experimental Example 3: In Vivo Pharmacokinetics Study after Single Administration in Rats
Male SD rats were used as the test animals, and the plasma concentrations of the compound were determined after a single administration and the pharmacokinetic behavior was evaluated.
Sprague Dawley rats (male, 200 to 300 g, 7 to 9 weeks old, Shanghai Charles River Laboratory Animal Co., LTD.)
Standard protocols were used to test the pharmacokinetic characteristics of the tested compounds in rodents after intravenous injection and oral administration, in the experiment, the tested compounds were prepared into a clear solution or a homogeneous suspension, and the rats were given a single intravenous injection and oral administration. In the intravenous injection group, the solvent was a certain proportion of ethanol and normal saline solution or a certain proportion of HP-β cyclodextrin solution of dimethyl sulfoxide (the pH was adjusted 3 to 4), the mixture was vortex-stirred to prepare 1 mg/mL clear solution and filtered by a microporous membrane for later use; oral solvent was a certain proportion of sodium carboxymethyl cellulose solution or a certain proportion of HP-β cyclodextrin solution of dimethyl sulfoxide (the pH was adjusted to above 4), after the compound to be tested was mixed with the solvent, the mixture was vortex-stirred to obtain a uniform suspension of 30 mg/mL for later use.
(§3) C0 is the initial concentration, T1/2 is the elimination half-life, Vdss is the steady-state apparent volume of distribution, Cl is the total clearance, and AUC0-inf is area under the plasma drug concentration-time curve from 0 time to extrapolation to infinity area, Cmax is the peak concentration, and Tmax is the peak time.

[2] = In vivo pharmacokinetics study after single administration in Beagle dogs
Protocol: Experimental Example 4: In Vivo Pharmacokinetics Study after Single Administration in Beagle Dogs
Male Beagle dogs were used as the test animals, and the plasma concentrations of the compounds were determined after a single administration and the pharmacokinetic behavior was evaluated.
Beagle (male, 6 to 12 kg, more than 6 months old, Beijing Mars Biotechnology Co., Ltd.)
The purpose of the experiment was to test the pharmacokinetic characteristics of the tested compounds in non-rodents after intravenous injection and oral administration, in the experiment, the tested compounds were prepared into a clear solution or a homogeneous suspension, and the beagle dogs were given a single intravenous injection or oral administration. In the intravenous injection group, the solvent was a certain proportion of HP-β-cyclodextrin solution of dimethyl sulfoxide or a certain proportion of ethanol, and a normal saline solution of polyethylene glycol 400, vortexed and ultrasonicated to prepare a […] clear solution and filtered by microporous membrane for later use; oral solvent was a certain proportion of HP-β cyclodextrin solution of dimethyl sulfoxide or a certain proportion of sodium carboxymethyl cellulose solution, after the compound to be tested was mixed with the solvent, the solvent was vortexed and ultrasonicated to prepare a 3 mg/mL uniform suspension for later use.
as §3

[3] = tested on: human cytochrome P450 isoenzymes; experiment: Cytochrome P450 isoenzyme inhibitory activity test, overall conclusion; assay type: in vitro ADME; conditions: human liver microsomes
Protocol: as §1

[4] = Sprague Dawley, rat, plasma, 2 mg/kg, male rats, 2 mpk intravenous injection
[5] = Sprague Dawley, rat, plasma, 300 mg/kg, male rats, 300 mpk oral
[6] = dog, plasma, 2 mg/kg, male Beagle dogs, 2 mpk intravenous injection
[7] = dog, plasma, 15 mg/kg, male Beagle dogs, 15 mpk oral

Sequence of TrkA (P04629 440-796): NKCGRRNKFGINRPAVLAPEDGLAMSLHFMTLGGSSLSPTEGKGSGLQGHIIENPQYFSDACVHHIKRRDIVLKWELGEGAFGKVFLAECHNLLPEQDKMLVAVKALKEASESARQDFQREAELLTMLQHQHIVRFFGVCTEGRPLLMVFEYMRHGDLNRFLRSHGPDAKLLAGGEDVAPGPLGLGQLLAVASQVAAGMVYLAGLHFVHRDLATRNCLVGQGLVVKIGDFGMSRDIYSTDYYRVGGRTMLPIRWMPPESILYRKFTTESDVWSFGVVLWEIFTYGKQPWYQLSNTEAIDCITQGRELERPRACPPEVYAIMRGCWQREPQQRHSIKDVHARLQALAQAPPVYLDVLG

COCCN1C[C@@H](n2ccc(F)c2)[C@H](NC(=O)Nc2c(C)c(-c3cnc(C4(F)COC4)nc3)nn2-c2ccccc2)C1 [Compounds of formula (1)]
inhibitory effect on TrkA enzyme (in words) (TrkA): significant inhibitory effect | IC50 (TrkA; 15 nM TrkA kinase, 100 μM ATP, 23° C., 120 minutes, read-out: Trk AIC50): 0.00664 µM | IC50 (CYP1A2): > 0.05 µM | IC50 (CYP2C19): > 50 µM | IC50 (CYP2C9): 43.6 µM | IC50 (CYP2D6): 31.7 µM | IC50 (CYP3A4): > 50 µM | AUC(0-inf) [1, 4]: 1970 ng·h/mL | C0 [1, 4]: 3620 ng/mL | clearance [1, 4]: 17.1 mL/min/kg | half-life [1, 4]: 0.61 h | Vd ([1]; Sprague Dawley, rat, plasma, 2 mg/kg, male rats, 2 mpk intravenous injection, read-out: Vdss): 0.7 L/kg | AUC(0-inf) [1, 5]: 210000 ng·h/mL | Cmax [1, 5]: 47600 ng/mL | Tmax [1, 5]: 1.5 h | bioavailability [1, 5]: 71.1% | half-life [1, 5]: 1.7 h | pharmacokinetic properties and oral bioavailability (in words) ([1]; rats): good pharmacokinetic properties and oral bioavailability | pharmacokinetic properties and oral bioavailability (in words) ([2]; beagle dogs): good pharmacokinetic properties and oral bioavailability | AUC(0-inf) [2, 6]: 1840 ng·h/mL | C0 [2, 6]: 3940 ng/mL | clearance [2, 6]: 18.4 mL/min/kg | half-life [2, 6]: 0.72 h | Vd ([2]; dog, plasma, 2 mg/kg, male Beagle dogs, 2 mpk intravenous injection, read-out: Vdss): 0.71 L/kg | AUC(0-inf) [2, 7]: 12600 ng·h/mL | Cmax [2, 7]: 4560 ng/mL | Tmax [2, 7]: 1 h | bioavailability [2, 7]: 91.3% | half-life [2, 7]: 1.2 h | risk of drug-drug interaction (in words) [3]: lower risk of drug-drug interaction
